Values after ≈ are worked out from the molar mass of the structure shown.
Key:
Assay in all cases: in vitro antibacterial activity (MIC), agar dilution
Type in all cases: cell-based
[1] = test system: Streptococcus Pneumonia 5979; settings: organism code ZZ; BHI agar, 35-37° C., 20 to 24 hours; unit assumed
Experimental: (§1) Representative compounds of the present invention were assayed in vitro for antibacterial activity as follows: Twelve petri dishes containing successive aqueous dilutions of the test compound mixed with 10 mL of sterilized Brain Heart Infusion (BHI) agar (Difco 0418-01-5) were prepared. Each plate was inoculated with 1:100 (or 1:10 for slow-growing strains, such as Micrococcus and Streptococcus) dilutions of up to 32 different microorganisms, using a Steers replicator block. […] In addition, a control plate, using BHI agar containing no test compound, was prepared and incubated at the beginning and end of each test.
(§2) An additional plate containing a compound having known susceptibility patterns for the organisms being tested and belonging to the same antibiotic class as the test compound was also prepared and incubated as a further control, as well as to provide test-to-test comparability.
(§3) After incubation, each plate was visually inspected. The minimum inhibitory concentration (MIC) was defined as the lowest concentration of drug yielding no growth, a slight haze, or sparsely isolated colonies on the inoculum spot as compared to the growth control.

[2] = test system: Streptococcus pyogenes 930; settings: organism code MM; BHI agar, 35-37° C., 20 to 24 hours; unit assumed
Experimental: as §1, §2, §3

Escherichia coli DC-2 = settings: organism code SS; BHI agar, 35-37° C., 20 to 24 hours; unit assumed
Experimental: as §1, §2, §3

[3] = test system: Staphylococcus aureus ATCC 6538P; settings: organism code AA; BHI agar, 35-37° C., 20 to 24 hours; unit assumed
Experimental: as §1, §2, §3

[4] = test system: Streptococcus Pneumonia 5649; settings: organism code ZZA; BHI agar, 35-37° C., 20 to 24 hours; unit assumed
Experimental: as §1, §2, §3

[5] = test system: Staphylococcus aureus 1775; settings: organism code GG; BHI agar, 35-37° C., 20 to 24 hours; unit assumed
Experimental: as §1, §2, §3

[6] = test system: Micrococcus luteus ATCC 4698; settings: organism code PP; BHI agar, 35-37° C., 20 to 24 hours; unit assumed
Experimental: as §1, §2, §3

Candida albicans CCH 442 = settings: organism code TT; BHI agar, 35-37° C., 20 to 24 hours; unit assumed
Experimental: as §1, §2, §3

[7] = test system: Staphylococcus aureus CMX 553; settings: organism code FF; BHI agar, 35-37° C., 20 to 24 hours; unit assumed
Experimental: as §1, §2, §3

[8] = test system: Streptococcus agalactiae CMX 508; settings: organism code KK; BHI agar, 35-37° C., 20 to 24 hours; unit assumed
Experimental: as §1, §2, §3

[9] = test system: Nocardia Asteroides ATCC9970; settings: organism code VV; BHI agar, 35-37° C., 20 to 24 hours; unit assumed
Experimental: as §1, §2, §3

[10] = test system: Streptococcus bovis A-5169; settings: organism code JJ; BHI agar, 35-37° C., 20 to 24 hours; unit assumed
Experimental: as §1, §2, §3

[11] = test system: Staphylococcus aureus A-5278; settings: organism code CC; BHI agar, 35-37° C., 20 to 24 hours; unit assumed
Experimental: as §1, §2, §3

[12] = test system: Streptococcus Pneumonia GYR 1171; settings: organism code YY; BHI agar, 35-37° C., 20 to 24 hours; unit assumed
Experimental: as §1, §2, §3

[13] = test system: Staphylococcus aureus NCTC10649M; settings: organism code EE; BHI agar, 35-37° C., 20 to 24 hours; unit assumed
Experimental: as §1, §2, §3

[14] = test system: Streptococcus Pneumonia ATCC6303; settings: organism code XX; BHI agar, 35-37° C., 20 to 24 hours; unit assumed
Experimental: as §1, §2, §3

Escherichia coli JUHL = settings: organism code QQ; BHI agar, 35-37° C., 20 to 24 hours; unit assumed
Experimental: as §1, §2, §3

[15] = test system: Staphylococcus aureus A5177; settings: organism code BB; BHI agar, 35-37° C., 20 to 24 hours; unit assumed
Experimental: as §1, §2, §3

[16] = test system: Micrococcus luteus ATCC 9341; settings: organism code OO; BHI agar, 35-37° C., 20 to 24 hours; unit assumed
Experimental: as §1, §2, §3

[17] = test system: Enterococcus faecium ATCC 8043; settings: organism code II; BHI agar, 35-37° C., 20 to 24 hours; unit assumed
Experimental: as §1, §2, §3

[18] = test system: Staphylococcus aureus CMX 642A; settings: organism code DD; BHI agar, 35-37° C., 20 to 24 hours; unit assumed
Experimental: as §1, §2, §3

[19] = test system: Streptococcus pyogenes PIU 2548; settings: organism code NN; BHI agar, 35-37° C., 20 to 24 hours; unit assumed
Experimental: as §1, §2, §3

[20] = test system: Staphylococcus epidermidis 3519; settings: organism code HH; BHI agar, 35-37° C., 20 to 24 hours; unit assumed
Experimental: as §1, §2, §3

Escherichia coli SS = settings: organism code RR; BHI agar, 35-37° C., 20 to 24 hours; unit assumed
Experimental: as §1, §2, §3

[21] = test system: Streptococcus pyogenes EES61; settings: organism code LL; BHI agar, 35-37° C., 20 to 24 hours; unit assumed
Experimental: as §1, §2, §3

[22] = test system: Mycobacterium smegmatis ATCC 114; settings: organism code UU; BHI agar, 35-37° C., 20 to 24 hours; unit assumed
Experimental: as §1, §2, §3

[23] = test system: Haemophilis Influenzae DILL AMP R; settings: organism code WW; BHI agar, 35-37° C., 20 to 24 hours; unit assumed
Experimental: as §1, §2, §3

| SMILES | MIC [2] | MIC (Escherichia coli DC-2) | MIC [3] | MIC [4] | MIC [5] | MIC [6] | MIC (Candida albicans CCH 442) | MIC [7] | MIC [8] | MIC [9] | MIC [10] | MIC [11] | MIC [12] | MIC [13] | MIC (Escherichia coli JUHL) | MIC [15] | MIC [16] | MIC [17] | MIC [18] | MIC [19] | other results |
| --- | --- | --- | --- | --- | --- | --- | --- | --- | --- | --- | --- | --- | --- | --- | --- | --- | --- | --- | --- | --- | --- |
| CC[C@H]1OC(=O)[C@H](C)C(=O)[C@H](C)[C@@H](O[C@@H]2O[C@H](C)C[C@H](N(C)C)[C@H]2O)[C@](C)(OC/C=C/c2cncc(-c3cccnc3)c2)C[C@@H](C)C(=O)[C@H](C)[C@H]2NC(=O)O[C@@]21C [Example 47] | 50 µg/mL (≈ 63.1 µM) | 25 µg/mL (≈ 31.5 µM) | 0.05 µg/mL (≈ 0.0631 µM) | 0.5 µg/mL (≈ 0.631 µM) | > 100 µg/mL | 0.2 µg/mL (≈ 0.252 µM) | > 100 µg/mL | 0.05 µg/mL (≈ 0.0631 µM) | 0.01 µg/mL (≈ 0.0126 µM) | 0.05 µg/mL (≈ 0.0631 µM) | 0.01 µg/mL (≈ 0.0126 µM) | > 100 µg/mL | 0.008 µg/mL (≈ 0.0101 µM) | 0.1 µg/mL (≈ 0.126 µM) | 50 µg/mL (≈ 63.1 µM) | 0.05 µg/mL (≈ 0.0631 µM) | 0.01 µg/mL (≈ 0.0126 µM) | 0.05 µg/mL (≈ 0.0631 µM) | 0.05 µg/mL (≈ 0.0631 µM) | 0.2 µg/mL (≈ 0.252 µM) | MIC [1]: > 128 µg/mL; MIC [14]: 0.008 µg/mL (≈ 0.0101 µM); MIC [20]: 0.1 µg/mL (≈ 0.126 µM); MIC (Escherichia coli SS): 0.39 µg/mL (≈ 0.492 µM); MIC [21]: 0.02 µg/mL (≈ 0.0252 µM); MIC [22]: 0.78 µg/mL (≈ 0.984 µM) |
| CC[C@H]1OC(=O)[C@H](C)[C@@H](O[C@H]2C[C@@](C)(OC)[C@@H](O)[C@H](C)O2)[C@H](C)[C@@H](O[C@@H]2O[C@H](C)C[C@H](N(C)C)[C@H]2O)[C@](C)(O)C[C@@H](C)C(=O)[C@H](C)[C@@H](O)[C@]1(C)O [Ery. A, Erythromycin A, reference compound] | > 100 µg/mL | > 100 µg/mL | 0.2 µg/mL (≈ 0.273 µM) | 16 µg/mL (≈ 21.8 µM) | > 100 µg/mL | 0.2 µg/mL (≈ 0.273 µM) | > 100 µg/mL | 0.39 µg/mL (≈ 0.531 µM) | 0.05 µg/mL (≈ 0.0681 µM) | 0.1 µg/mL (≈ 0.136 µM) | 0.02 µg/mL (≈ 0.0273 µM) | > 100 µg/mL | 0.06 µg/mL (≈ 0.0818 µM) | 0.39 µg/mL (≈ 0.531 µM) | > 100 µg/mL | 3.1 µg/mL (≈ 4.22 µM) | 0.05 µg/mL (≈ 0.0681 µM) | 0.05 µg/mL (≈ 0.0681 µM) | 0.39 µg/mL (≈ 0.531 µM) | 6.2 µg/mL (≈ 8.45 µM) | MIC [23]: 4 µg/mL (≈ 5.45 µM); MIC [14]: 0.06 µg/mL (≈ 0.0818 µM); MIC [20]: 0.39 µg/mL (≈ 0.531 µM); MIC (Escherichia coli SS): 0.78 µg/mL (≈ 1.06 µM); MIC [21]: 0.05 µg/mL (≈ 0.0681 µM); MIC [22]: 3.1 µg/mL (≈ 4.22 µM) |
| CC[C@H]1OC(=O)[C@H](C)C(=O)[C@H](C)[C@@H](O[C@@H]2O[C@H](C)C[C@H](N(C)C)[C@H]2O)[C@](C)(OCC#Cc2ccc(-c3cc(Cl)cc(Cl)c3)s2)C[C@@H](C)C(=O)[C@H](C)[C@H]2NC(=O)O[C@@]21C [Example 17] | 3.1 µg/mL (≈ 3.59 µM) | > 100 µg/mL | 0.39 µg/mL (≈ 0.451 µM) | 1 µg/mL (≈ 1.16 µM) | 12.5 µg/mL (≈ 14.5 µM) | 0.78 µg/mL (≈ 0.903 µM) | > 100 µg/mL | 0.78 µg/mL (≈ 0.903 µM) | 0.2 µg/mL (≈ 0.232 µM) | 0.78 µg/mL (≈ 0.903 µM) | 0.2 µg/mL (≈ 0.232 µM) | 12.5 µg/mL (≈ 14.5 µM) | 0.125 µg/mL (≈ 0.145 µM) | 1.56 µg/mL (≈ 1.81 µM) | > 100 µg/mL | 0.78 µg/mL (≈ 0.903 µM) | 0.39 µg/mL (≈ 0.451 µM) | 0.78 µg/mL (≈ 0.903 µM) | 0.78 µg/mL (≈ 0.903 µM) | 0.39 µg/mL (≈ 0.451 µM) | MIC [1]: 1 µg/mL (≈ 1.16 µM); MIC [23]: 8 µg/mL (≈ 9.26 µM); MIC [20]: 0.78 µg/mL (≈ 0.903 µM); MIC (Escherichia coli SS): 12.5 µg/mL (≈ 14.5 µM); MIC [21]: 0.39 µg/mL (≈ 0.451 µM); MIC [22]: 0.78 µg/mL (≈ 0.903 µM) |

Source: US6054435A, “6-O-substituted macrolides having antibacterial activity” (priority 1999, dated 2000)
